Measured values: US20110301110A1, “TRIM33 (TIF1gamma) AS A NEW DIAGNOSTIC MARKER OF CHRONIC MYELOMONOCYTIC LEUKEMIA (CMML)” (priority 2010, published 2011)

Key:
[1] = tested on: TIF1γ expression in sorted PB monocytes (CD14+ cells); assay: TIF1γ expression (RQ-PCR, immuno-blotting) in sorted PB monocytes (CD14+ cells) of a CMML patient before and after treatment with decitabine; assay type: in vivo, human; details: one CMML patient with very low Tif1γ level, after 5 cycles of decitabine; sorted PB monocytes (FIG. 7A)
Description: Protein extracts were prepared from purified human monocytes (CD14+ cells) for SDS-PAGE and immuno-blotting with anti-TIF1γ antibody. Equivalent loading of lanes was controlled by the use of an anti-HSC70 antibody.

control Lin- cells = control Lin- cells cultured for 10 days in the presence or absence of TGF-β or TGF-β inhibitor, formation of myeloid cells; assay type: cell-based, mouse; details: 10 days culture, compared to untreated cultures
Description: (§1) To answer this question, control and Tif1γ-deficient Lin^− cells were cultured for 10 days in the presence or absence of TGF-β. Cells were also treated with TGF-β inhibitor.

[2] = tested on: Tif1γ-deficient Lin- cells; assay: Tif1γ-deficient Lin- cells cultured for 10 days in the presence or absence of TGF-β, myelopoiesis; assay type: cell-based, mouse; details: 10 days culture
Description: as §1

HCT116 = HCT116 human tumor cell line; cited from earlier work
NALM-6 = NALM-6 human tumor cell line; cited from earlier work

Compound: Nc1ncn([C@H]2C[C@H](O)[C@@H](CO)O2)c(=O)n1 [decitabine, 4-amino-1-(2-deoxy-b-D-erythro-pentofuranosyl)-1,3,5-triazin-2(1 H)-one]
- TIF1γ expression, increase compared to the level measured before treatment [1]: 8 fold

Compound: TGF-β
- formation of myeloid cells (control Lin- cells): limited formation of myeloid cells
- myelopoiesis [2]: did not inhibit myelopoiesis

Compound: O=C(O)C(Cc1c[nH]c2ccccc12)N1C(=O)c2ccccc2C1=O (centres unmarked) [RG 108, N-phthalyl-1-tryptophan]
- proliferation (HCT116): inhibits
- proliferation (NALM-6): inhibits
